One series addresses T1, human serum albumin (Homo sapiens, UniProt P02768).
T1 construct: purchased Behring, Bern, Switzerland
Kind of series: Serum albumin binding (ultrafiltration, ICP-MS). The series is classed as in vitro ADME. The note with it: 20 μM complex, 40 g/L HSA, 37° C.; for binding of complex to human serum albumin: 30 or 90 min. The procedure:
Serum albumin binding. Solutions containing 20 μM Gd-3.1., Gd-5.1. or Gd-6.1. and 40 g/L human serum albumin (Behring, Bern, Switzerland) were incubated at 37° C. for 30 or 90 min. The solutions were subjected to ultrafiltration (filter cutoff 20 kD; Sartorius, Göttingen, Germany), and the amount of unbound complex was determined in the ultrafiltrate with ICP-MS (n=2).
HSA Binding: 20 μM solutions of the complexes were incubated at 37° C. for 30 and 90 minutes in a solution of 40 g HSA/L (Behring, Bern; Switzerland). The amount of unbound complex was determined in ultrafiltrates with ICP-MS.

Series [1] relates to subcutaneous MH3924A tumor. Kind of series: MRI of ACI rats bearing a subcutaneous MH3924A tumor. The note with it: 0.1 mmol/kg i.v., 2.35 T. The series is classed as in vivo, rat. The procedure: Animal models. For in vivo tumor studies 2×10^6 MH3924A tumor cells were injected subcutaneously into the right thigh of male ACI rats (Charles River, Sulzfeld, Germany) weighing 220 to 260 g. All animal experiments were performed in compliance with the German Animal Protection Laws (Permission 35-9185.81/G-7-03, Reg.-Praesidium, Karlsruhe, Germany).
MRI. At 25 days after inoculation, when tumors had reached a diameter of ca. 10-15 mm, the MR imaging experiments were initiated. ACI rats were anesthetized by intravenous injection of ketamin (Ketanest®, 0.1 mg/g body wt.; Parke-Davis, Berlin, Germany). Then a dose of 0.1 mmol/kg Magnevist® or Gadovist® (Schering, Berlin, Germany) or one of the synthesized agents Gd-3.1., Gd-5.1. or Gd-6.1. was injected intravenously into a lateral tail vein. For one experiment a higher dose (0.36 mmol/kg) of Magnevist® was used. Individual rats were examined by MRI at 1 h and 24 h post Gd, in the case of Magnevist® also at ca. 15 min post Gd. Proton imaging studies were performed at 2.35 T (100.3 MHz) with a Biospec 24/40 instrument (Bruker BioSpin MRI, Ettlingen, Germany). […] Two transaxial multislice imaging protocols were applied with a field of view of 70×70 mm, 128 time-domain data points, 96 phase-encoding steps, and 16 slices of 2 mm thickness. A multi-spin-echo sequence was used for proton-density and T2-weighted images (repetition time TR=2 s, 12 echoes with echo times TE of 8, 16, 24, . . . 96 ms, number of averages=1), and a spoiled gradient-echo sequence was used for T1-weighted imaging (TR=212 ms, TE=5 ms, flip angle=60°, number of averages=3). The data were Fourier transformed to give a 128×128 image matrix with 0.55 mm pixel resolution. Analogous T1-weighted images with coronal slices were acquired with a field of view of 80×80 mm and 3-mm slice thickness.
Imaging viewing, ROI analysis and export of TIFF files was performed with the freeware MRIcro from Chris Rorden (http://people.cas.sc.edu/rorden/mricro.html).

Series [2] has as its system MH3924A Morris hepatoma cells. In words: Intracellular uptake of gadolinium complexes (ICP-MS). The note with it: MH3924A cells; for intracellular uptake of gadolinium complex: 24-h incubation. Format: cell-based, rat. The procedure:
Cell culture. B16 melanoma cells (mouse) and MH3924A Morris hepatoma cells (rat) were obtained from the German Cancer Research Center (DKFZ) tumor bank and grown at 37° C. as stock cultures in RPMI 1640 supplemented with 10% fetal calf serum and 1% glutamine as standard medium under a 5% CO2 atmosphere (all components: Pan Biotech GmbH, Aidenbach, Germany). For contrast agent uptake studies 10^6 cells were inoculated into 25 cm^2 culture flasks (BD Biosciences, Bedford, USA) and grown for 24 h in 10 mL of the standard culture medium. Cells were then incubated for an additional 24 h (1 h for temperature dependence studies) with fresh medium containing 0, 1, 2.5, 5 or 10 μM of the selected gadolinium complex (three replicate flasks for each incubation). Afterwards the medium was removed, cells were trypsinated, washed twice, resuspended in culture medium and counted (typical yields: 3.5-6 million cells). For comparison 2.5×10^5 human melanocytes (Promo Cell, Heidelberg, Germany) were incubated for 24 h with melanocyte growth medium (Promo Cell, Heidelberg, Germany) containing 0, 1, 2.5, 5 or 10 μM of the selected gadolinium complex (two replicate flasks for each incubation). The work up procedure was as described above typically yielding 2.5×10^5 cells. Cultured human hepatocytes (Cytonet GmbH, Weinheim, Germany) embedded in a collagen matrix in a 12 well microtiter plate, with 6×10^5 viable cells per well were incubated for 24 h in hepatocyte growth medium (Cytonet GmbH, Weinheim, Germany) containing the same concentration series of selected gadolinium complexes. Afterwards the medium was removed, cells were separated using collagenase (Roche Diagnostics, Mannheim, Germany). After digestion the cells were washed twice with PBS, resuspended in culture medium and counted (typical yields: 6×10^5 cells per tube). The intracellular gadolinium content was determined by ICP-MS as described below.
ICP-MS. Samples containing the above mentioned number of harvested cells were digested with 50% concentrated HNO3 (Superselect; Merck, Darmstadt, Germany) under microwave heating with a Mars 5 apparatus (CEM GmbH, Kamp-Lintfort, Germany). To each sample 100 μL of an aqueous solution of rhodium chloride (1 μg/mL) were added so that Rh-103 could be used as an internal quantification standard. Gd-160 measurements were performed with the ICP-MS instrument mentioned above. The gadolinium concentrations were determined using standard curves created prior to cell analyses. For each uptake incubation condition triplicate cell samples were analyzed, and Gd content for each sample was recorded as the mean of two MS determinations.
Intracellular Uptake of Gadolinium Complexes. B16 melanoma and MH3924A hepatoma cells as well as human melanocytes and hepatocytes were incubated for 24 h in the presence of the gadolinium complexes shown in FIG. 1, using concentrations in the range of 1-10 μM. Incubations with the unsubstituted [Gd(DTPA)(H2O)]^2−complex (Magnevist®) served as controls. Following cell harvest and hydrolysis, inductively coupled plasma mass spectrometry (ICP-MS) with direct detection of gadolinium was used to quantitate complex uptake (triplicate cultures for each incubation).
Cell Uptake Studies. A493 (human kidney), B16 melanoma cells (mouse), HeLa (human cervix), MCF-7 (human breats), MH3924A (Morris hepatoma) cells (rat) and 3T3 NIH (mouse fibroblasts) were obtained from the DKFZ tumor cell collection. 3×10^6 cells of each cell type were grown for 24 hours in culture flasks. Afterwards they were incubated for 1 hour in 10 mL culture media containing 0, 10, 50 and 100 μM of Gd-2.2. Gd-3.2 or Gd-4.2. Afterwards the medium was removed, the cells were trypsinated, washed twice, resuspended in culture medium and counted. The gadolinium uptake was determined in triplicate. […] cells were incubated with 0, 1, 2.5, 5 and 10 μM of the Gd-1.2. and Gd-5.2. for 24 h. […]

Each structure is given as a SMILES string. Where “and” joins values, the source holds several entries; their conditions need not be identical. Equal entries are not always repeated.

From patent US20070202047A1, “Polyamine-substituted ligands for use as contrast agents” (priority 2006, published 2007) come the findings set out here.

T1 sequence (P02768 25-609): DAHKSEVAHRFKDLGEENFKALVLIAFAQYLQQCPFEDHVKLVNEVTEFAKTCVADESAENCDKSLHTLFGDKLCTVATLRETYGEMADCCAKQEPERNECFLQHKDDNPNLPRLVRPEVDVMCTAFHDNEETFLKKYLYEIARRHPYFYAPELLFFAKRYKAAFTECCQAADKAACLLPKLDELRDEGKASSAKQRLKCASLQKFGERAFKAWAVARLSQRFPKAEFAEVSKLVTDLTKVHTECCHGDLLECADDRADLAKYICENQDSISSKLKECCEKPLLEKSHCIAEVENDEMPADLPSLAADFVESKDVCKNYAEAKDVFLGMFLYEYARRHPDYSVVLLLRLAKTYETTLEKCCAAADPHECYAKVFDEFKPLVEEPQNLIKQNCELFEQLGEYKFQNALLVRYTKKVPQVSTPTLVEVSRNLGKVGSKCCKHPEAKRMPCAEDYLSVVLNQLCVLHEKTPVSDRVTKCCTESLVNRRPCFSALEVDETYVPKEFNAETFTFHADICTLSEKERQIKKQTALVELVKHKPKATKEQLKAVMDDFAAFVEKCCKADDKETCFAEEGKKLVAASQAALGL

With `CCN(CC)CCNC(=O)CN(CCN(CCN(CC(=O)[O-])CC(=O)N(CCN)CCN)CC(=O)[O-])CC(=O)[O-].[Gd+3]` [Gd-3.1], the “binding of complex to human serum albumin” value (“binding of complex” below) at human serum albumin was “no significant binding of complex to protein”. In addition, the “complex found to be free (unbound)” value on human serum albumin (ultrafiltrate) turned out to be 93±6%. Moreover, the “contrast ratio tumor vs. muscle tissue, T1 weighting” value was determined as 1.22 in series [1] (1 h post Gd) and 1.11 in series [1] (24 h post Gd). Further, in series [2] (10 μM), the “intracellular uptake of gadolinium complex” value (“intracellular uptake” below) was 0.175±0.0013 fmol/cell and 0.175 fmol/cell.

On to `NCCN(CCN)C(=O)CN(CCN(CCN(CC(=O)[O-])CC(=O)N(CCN)CCN)CC(=O)[O-])CC(=O)[O-].[Gd+3]` [Gd-5.1], for which the “binding of complex” value on human serum albumin is “no significant binding of complex to protein”. In addition, the “contrast ratio tumor vs. muscle tissue, T1 weighting” value is given as 1.11 in series [1] (1 h post Gd) and 1.08 in series [1] (24 h post Gd). For the same compound, the “intracellular uptake” value in series [2] (10 μM) is on record as 0.053±0.005 fmol/cell. The “observed factor of decrease in uptake at 4° C. vs. 37° C.” value in series [2] (1 h (FIG. 3A)) was ~6.5. Moreover, the “uptake over 1 h at 4° C.” value in series [2] (1 h, 4° C., 10 μM) came to 0.00064±0.00004 fmol/cell. Also, in series [2] (1 h, 37° C., 10 μM), the “uptake over 1 h at 37° C.” value came out at 0.008±0.00041 fmol/cell.

For the compound `NCCCCN(CCCN)C(=O)CN(CCN(CCN(CC(=O)[O-])CC(=O)N(CCCN)CCCCN)CC(=O)[O-])CC(=O)[O-].[Gd+3]` [Gd-6.1], the “binding of complex” value on human serum albumin is on record as “no significant binding of complex to protein”. The “contrast ratio tumor vs. muscle tissue, T1 weighting” value in series [1] (1 h post Gd) was 1.49; in series [1] (24 h post Gd) it was 1.21. In addition, the “intracellular uptake” value in series [2] (10 μM) is reported as 0.108 fmol/cell.
